Data taken from patent US20190116795A1, “USE OF TENVERMECTIN IN CONTROL OF HARMFUL INSECTS IN AGRICULTURAL AND FOREST CROPS” (ZHEJIANG HISUN PHARMACEUTICAL CO., LTD., priority 2016, published 2019).
Converted amounts (≈) assume the structure as drawn. Where two headings read alike, the source gives them in different places.

Tests used:
[1] = test system: Nilaparvata lugens imagoes; experiment: Indoor toxicity against Nilaparvata lugens imagoes, soaking seedling method; assay type: in vivo; details: for LC50: Nilaparvata lugens imagoes, soaked rice seedlings, 72 hours, 26±1 °C; for Relative toxicity: maximum LC50 divided by LC50 of each agent, imidacloprid = 1
Text: Test insect source: the Nilaparvata lugens imagoes were collected from the rice field in Jiaxing, Zhejiang and were raised indoors with rice seedlings.
The soaking seedling method was used in this test.

[2] = test system: Laodelphax striatellus imagoes; experiment: whole plant or invertebrate; details: for Relative toxicity: maximum LC50 divided by LC50 of each agent, imidacloprid = 1
Protocol: Each original medicine was dissolved in DMF and formulated into a 10000 mg/L solution for later use.
Test insect source: The Laodelphax striatellus imagoes were collected in the rice fields of Jiaxing, Zhejiang, and were raised indoors with rice seedlings.
The soaking seedling method was used in this test. The test agents were diluted with tap water into five series of concentrations on the basis of pre-test to be used as test solutions. Specifically, lambda-cyhalothrin and imidacloprid were diluted to 5 mg/L, 10 mg/L, 25 mg/L, 50 mg/L and 100 mg/L; abamectin was diluted to 0.25 mg/L, 0.5 Mg/L, 1.0 mg/L, 2.5 mg/L and 5.0 mg/L; tenvermectin A was diluted to 0.05 mg/L, 0.10 mg/L, 0.25 mg/L, 0.5 mg/L and 1.0 mg/L. Rice seedlings that are sown indoors for about 25 days and have no rice planthopper eggs were taken, a few rice roots were left, the seedlings were soaked in pre-formed solution for 30 seconds then they were taken out and dried, and were put into a 3 cm×20 cm test tube. There was a little water at the bottom of the tube. 2-3 rice seedlings per tube, three repetitions per treatment, and the one treated with water was used as a control. Each tube receives 40-50 heads of Laodelphax striatellus, and the tubes were sealed with black cloth and were placed in a worm room under a temperature of (26±1) ° C. After 72 hours of treatment, the number of dead insects was checked. […] Experimental data statistics and analysis were performed using spss 19 software.
The relative toxicity index of the agent having the largest LC50 was set to be 1, and the relative toxicity index of each agent was determined by dividing the maximum LC50 by the LC50 value of each agent.

Bemisia tabaci imagoes = experiment: Indoor toxicity against Bemisia tabaci imagoes, liquid membrane impregnation method of blades; assay type: in vivo; details: for Relative toxicity: maximum LC50 divided by LC50 of each agent, acetamiprid = 1
Protocol: The liquid membrane impregnation method of blades was used. […] One tomato leaf was placed in each culture dish. Three repetitions per treatment, a leaf was soaked with water, dried, and then was placed in a culture dish to be used as a control. The Bemisia tabaci imagoes were gently patted into the culture dish, about 30 to 40 imagoes in each dish. The dishes were sealed with plastic wrap, several small holes were made on the plastic wrap to facilitate ventilation. After 24 hours, the death of Bemisia tabaci imagoes was checked under a binocular microscope (the anatomical needle was used to gently touch the Bemisia tabaci imagoes, and the motionless ones were regarded to be dead). Experimental data statistics and analysis were performed with spss 19 software.

[3] = test system: Frankliniella occidentalis Pergande imagoes; experiment: Indoor toxicity against Frankliniella occidentalis Pergande imagoes, impregnation method; assay type: in vivo; details: for LC50: Frankliniella occidentalis Pergande imagoes, impregnation, 48 hours after medication, 26 °C; for Relative toxicity: maximum LC50 divided by LC50 of each agent, imidacloprid = 1
Text: The impregnation method was used. […] The quantitative Frankliniella occidentalis Pergande (15-20 heads) in the suction trap were flicked into the solution in the insect box, and the solution was gently stirred with a glass rod for 10 seconds, and the insect box was quickly removed from the solution, and when the solution was drained out from the insect box, the residual solution on the copper net was blotted with absorbent paper from the bottom of the insect box, and then a 3 cm long kidney bean slice (Frankliniella occidentalis Pergande feed) was put into the insect box, and finally the insect box was sealed with a parafilm. […] The sealed insect box was placed in a HPG280H light incubator under a temperature of 26° C. and a humidity of 70%.

zebrafish = experiment: Toxicity test on zebrafish, semi-static method; assay type: in vivo, Brachydanio rerio
Protocol: Test fish and water: zebrafish (Brachydanio rerio) were purchased from Zhejiang Academy of Agricultural Sciences and were of uniform size with an average body length of 2-3 cm and an average body weight of 0.3 g. They were domesticated for 7 days indoors before the test. The natural mortality rate was zero. Feeding was stopped 1 day before the test and the fish were not fed during the test. The test water was tap water after removing residual chlorine by exposure to the sun for more than 24 hours, and the pH was 6.8.
The sample was formulated into 50 mg/ml mother liquor with DMF.
Method: Semi-static method. Three level differences were set for each sample:
0.5 ppm, 1.0 ppm and 2.0 ppm, and three sets of parallels were set for each level difference, 10 zebrafish were raised for each group, and blank controls (one group without agents and one group with only solvent) were set. The corresponding volume of mother liquor was taken according to the concentration as required for each sample, and the volume of each sample was adjusted to 150 μl with DMF, and then each sample was added to the test group (containing 1.6 L of water). The room temperature was controlled at 22±2° C. for 96 hours, and the water was changed every 24 hours and the samples were re-added. The fish mortality rate was recorded for the first 8 hours and at 24, 48, 72, and 96 hours, and the dead fish were removed in time. Finally, the agents were divided into three grades according to the values of LC50: low-toxic pesticides with a LC50>10 ppm, middle-toxic pesticides with a LC50 of 1.0-10 ppm, and high-toxic pesticides with a LC50<1.0 ppm.

cabbage Phyllotreta = experiment: Field efficacy test against cabbage Phyllotreta; assay type: in vivo; details: 1 day, 3 days and 7 days after medication
Protocol: In the laboratory, the above-mentioned original medicines were respectively formulated into the following formulations for later use: 1.8% abamectin emulsifiable concentrate, 1.8% tenvermectin A emulsifiable concentrate, 1.8% tenvermectin B emulsifiable concentrate, 5% imidacloprid emulsifiable concentrate, 5% acetamiprid emulsifiable concentrate, 2.5% lambda-cyhalothrin emulsifiable concentrate.
The test was conducted in Linhai City, and the test crop was cabbage, and the object to be controlled was Phyllotreta.
The experiment consisted of 7 treatments, 3 replicates per treatment, 21 sections in total. The sections were randomly arranged, the area for each section was 66.7 m^2. A type of knapsack manual sprayer was used to spray once, the amount of each section was calculated according to the amount of 50 ml/mu, and the leaves were sprayed evenly. Each treatment was isolated from each other to avoid mutual interference. A blank control was set, and the blank control was sprayed with water. The population base of insects was investigated before medication, and the number of live insects was investigated 1 day, 3 days, and 7 days after medication, and a total of 4 investigations were conducted. 20 plants were randomly investigated per section. The rate of reduction of population was calculated and the control effect was corrected. No other pesticides were used during the test. […]

[4] = test system: Coptotermes formosanus Shiraki; experiment: Indoor toxicity against Coptotermes formosanus Shiraki, topical drop with microinjector; assay type: in vivo; details: for Relative toxicity: maximum LC50 divided by LC50 of each agent, abamectin = 1
Protocol: Specifically, abamectin was diluted to 0.01 mg/L, 0.025 mg/L, 0.05 mg/L, 0.10 mg/L and 0.25 mg/L; tenvermectin A and tenvermectin B were diluted to 0.001 mg/L, 0.0025 mg/L, 0.005 mg/L, 0.01 mg/L and 0.025 mg/L. The termites to be tested were placed in culture dishes with a diameter of 15 cm, and 20 worker ants were placed in each dish. During the test, a microinjector was used to drop 1 μI of the solution to the thorax and abdome of each termite for a total of 3 repetitions. One fungus comb was placed in each dish for termites to inhabit and a wet absorbent cotton ball was placed to moisturize. After completing dropping the solution, the culture dish was placed in a chamber under a constant temperature of 18±1° C. and a constant humidity and was cultivated in dark conditions, the death conditions were observed 24 hours and 48 hours after dropping the solution respectively. A writing brush was used to touch the various parts of the bodies of the termites and the termites that are completely immobile were judged to be dead.

[5] = Laodelphax striatellus, in Oryza sativa, 72 h
[6] = Bemisia tabaci imagoes, soaked tomato leaves, death checked after 24 hours

With `CC1(C)[C@H](C(=O)O[C@H](C#N)c2cccc(Oc3ccccc3)c2)[C@@H]1/C=C(\Cl)C(F)(F)F` (racemic) [Lambda-cyhalothrin] the LC50 ([1]; read-out: LC50) was 17.7 µg/mL (≈ 39.4 µM), the Relative toxicity [1] was 1.923 and the LC50 [2, 5] was 12 µg/mL (≈ 26.7 µM). It also gave a Relative toxicity [2] of 2.648.
Molecule `C/C(=N\C#N)N(C)Cc1ccc(Cl)nc1` [Acetamiprid] has an LC50 (Bemisia tabaci imagoes; Bemisia tabaci, in Solanum lycopersicum, 24 h) of 2.54 µg/mL (≈ 11.4 µM) and a Relative toxicity (Bemisia tabaci imagoes) of 1.
`O=[N+]([O-])NC1=NCCN1Cc1ccc(Cl)nc1` [Imidacloprid] gave an LC50 ([1]; read-out: LC50) of 33.9 µg/mL (≈ 132 µM), a Relative toxicity [1] of 1 and an LC50 ([3]; read-out: LC50) of 39.1 µg/mL (≈ 153 µM). For the same molecule, the Relative toxicity [3] was 1, the LC50 [2, 5] was 31.8 µg/mL (≈ 124 µM) and the Relative toxicity [2] was 1.
`CC[C@H](C)C1O[C@]2(C=C[C@@H]1C)C[C@@H]1C[C@@H](C/C=C(\C)[C@@H](O[C@H]3C[C@H](OC)[C@@H](O[C@H]4C[C@H](OC)[C@H](NC)[C@H](C)O4)[C@H](C)O3)[C@@H](C)/C=C/C=C3\CO[C@@H]4[C@H](O)C(C)=C[C@@H](C(=O)O1)[C@]34O)O2.O=C(O)c1ccccc1` (some centres unmarked) [Methylamino abamectin benzoate] was tested, and the LC50 [3] was 0.318 µg/mL, the Relative toxicity [3] was 122.896 and the “Surviving condition (survival rate %)” value (zebrafish; 0.5 ppm, 8 h) was 0%. The “Surviving condition (survival rate %)” value (zebrafish; 1.0 ppm, 8 h) was 0% and the “Surviving condition (survival rate %)” value (zebrafish; 2.0 ppm, 8 h) was 0%.
With `CO[C@H]1CC(OC2[C@H](C)OC(OC3/C(C)=C/C[C@@H]4C[C@@H](C[C@]5(CCC(C)[C@@H](C)O5)O4)OC(=O)[C@@H]4C=C(C)[C@@H](O)[C@H]5OC/C(=C\C=C\C3C)[C@]54O)C[C@@H]2OC)O[C@@H](C)C1O` (some centres unmarked) [Tenvermectin A, tenvermectin A] the “control effect on cabbage Phyllotreta (in words)” value (cabbage Phyllotreta) was “no control effect”, the “Surviving condition (survival rate %)” value (zebrafish; 0.5 ppm, 8 h) was 100% and the “Surviving condition (survival rate %)” value (zebrafish; 0.5 ppm, 24 h) was 100%. The “Surviving condition (survival rate %)” value (zebrafish; 0.5 ppm, 48 h) was 100%, the “Surviving condition (survival rate %)” value (zebrafish; 0.5 ppm, 72 h) was 100% and the “Surviving condition (survival rate %)” value (zebrafish; 0.5 ppm, 96 h) was 100%. For the same molecule, the “Surviving condition (survival rate %)” value (zebrafish; 1.0 ppm, 8 h) was 100%, the “Surviving condition (survival rate %)” value (zebrafish; 1.0 ppm, 24 h) was 100% and the “Surviving condition (survival rate %)” value (zebrafish; 1.0 ppm, 48 h) was 100%. The “Surviving condition (survival rate %)” value (zebrafish; 1.0 ppm, 72 h) was 100%, the “Surviving condition (survival rate %)” value (zebrafish; 1.0 ppm, 96 h) was 100% and the “Surviving condition (survival rate %)” value (zebrafish; 2.0 ppm, 8 h) was 100%. The “Surviving condition (survival rate %)” value (zebrafish; 2.0 ppm, 24 h) was 100%, the “Surviving condition (survival rate %)” value (zebrafish; 2.0 ppm, 48 h) was 100% and the “Surviving condition (survival rate %)” value (zebrafish; 2.0 ppm, 72 h) was 93%. The “Surviving condition (survival rate %)” value (zebrafish; 2.0 ppm, 96 h) was 80%, the LC50 ([4]; in vivo) was 0.0086 µg/mL (≈ 0.0103 µM) and the Relative toxicity [4] was 4.77. For the same molecule, the LC50 ([2]; in vivo) was 0.296 µg/mL (≈ 0.355 µM), the Relative toxicity [2] was 107.490 and the LC50 (Bemisia tabaci imagoes; [6]) was 0.023 µg/mL (≈ 0.0276 µM). The Relative toxicity (Bemisia tabaci imagoes) was 110.478.
In the case of `CC[C@H]1O[C@]2(CCC1C)C[C@@H]1C[C@@H](C/C=C(\C)C(OC3C[C@H](OC)C(OC4C[C@H](OC)C(O)[C@H](C)O4)[C@H](C)O3)C(C)/C=C/C=C3\CO[C@@H]4[C@H](O)C(C)=C[C@@H](C(=O)O1)[C@]34O)O2` (some centres unmarked) [Tenvermectin B, tenvermectin B], the “control effect on cabbage Phyllotreta (in words)” value (cabbage Phyllotreta) is reported as “no control effect”, the “Surviving condition (survival rate %)” value (zebrafish; 0.5 ppm, 8 h) is reported as 100% and the “Surviving condition (survival rate %)” value (zebrafish; 0.5 ppm, 24 h) is reported as 70%. For the same molecule, the “Surviving condition (survival rate %)” value (zebrafish; 0.5 ppm, 48 h) was 50%, the “Surviving condition (survival rate %)” value (zebrafish; 0.5 ppm, 72 h) was 0% and the “Surviving condition (survival rate %)” value (zebrafish; 1.0 ppm, 8 h) was 53%. The “Surviving condition (survival rate %)” value (zebrafish; 1.0 ppm, 24 h) was 0%, the “Surviving condition (survival rate %)” value (zebrafish; 2.0 ppm, 8 h) was 10% and the “Surviving condition (survival rate %)” value (zebrafish; 2.0 ppm, 24 h) was 0%. It also gave an LC50 ([4]; in vivo) of 0.0066 µg/mL (≈ 0.00779 µM) and a Relative toxicity [4] of 6.21.
With Abamectin the LC50 [1] was 3.062 µg/mL, the Relative toxicity [1] was 11.063 and the LC50 [3] was 2.648 µg/mL. The Relative toxicity [3] was 14.759, the “Surviving condition (survival rate %)” value (zebrafish; 0.5 ppm, 8 h) was 0% and the “Surviving condition (survival rate %)” value (zebrafish; 1.0 ppm, 8 h) was 0%. The “Surviving condition (survival rate %)” value (zebrafish; 2.0 ppm, 8 h) was 0%, the LC50 ([4]; Coptotermes formosanus worker ants, 1 μl dropped per termite, 18±1 °C, observed 24 and 48 hours (time of LC50 not stated)) was 0.041 µg/mL and the Relative toxicity [4] was 1. The LC50 ([2]; Laodelphax striatellus imagoes, soaked rice seedlings, 72 hours, 26±1 °C) was 3.101 µg/mL, the Relative toxicity [2] was 10.260 and the LC50 (Bemisia tabaci imagoes; [6]) was 0.225 µg/mL. For the same molecule, the Relative toxicity (Bemisia tabaci imagoes) was 11.293.
In the case of Ivermectin, the “Surviving condition (survival rate %)” value (zebrafish; 0.5 ppm, 8 h) is reported as 0%, the “Surviving condition (survival rate %)” value (zebrafish; 1.0 ppm, 8 h) is reported as 0% and the “Surviving condition (survival rate %)” value (zebrafish; 2.0 ppm, 8 h) is reported as 0%.
Milbemycin was tested, and the “Surviving condition (survival rate %)” value (zebrafish; 0.5 ppm, 8 h) was 0%, the “Surviving condition (survival rate %)” value (zebrafish; 1.0 ppm, 8 h) was 0% and the “Surviving condition (survival rate %)” value (zebrafish; 2.0 ppm, 8 h) was 0%. The LC50 (Bemisia tabaci imagoes; in vivo) was 0.210 µg/mL and the Relative toxicity (Bemisia tabaci imagoes) was 12.100.
